“Also recorded” adds a separate entry of the source. Where a name gives a salt, the structure may show the parent alone.
Columns and labels:
[1] = tested on: PCP-induced reversal learning deficit; test: PCP-induced reversal learning task in rats; assay type: in vivo, rat
Description: Antipsychotic drugs: BL-1020 (perphenazine 4-aminobutyrate, mesylate salt; BioLineRx Ltd., Israel; administered per os); risperidone (Sigma, UK; administered intra-peritoneally); and perphenazine (Sigma, Israel; administered per os).
GABAA antagonists: picrotoxin (Sigma, UK; administered intra-peritoneally); and bicuculline (Sigma, UK; administered intra-peritoneally).
Female hooded-Lister rats (Charles River, UK) were housed in groups of five under standard laboratory conditions under a 12 hr diurnal cycle. Rats were maintained at approx 85% of free-feeding body weight average (250 grams) for the duration of the study.
Following habituation to the operant chambers, rats were trained to respond for food on an FR1 (Fixed Ratio 1) schedule of reinforcement with active levers active, as described by Abdul-Monim et al. (J. Psychopharmacology 17: 57-65, 2003). When a proper response for food was established the rats were trained to press either the left or right lever (only one of levers was active) for food delivery. The active lever was varied from day to day using a pseudorandom Gellerman schedule, which randomly assigns either the left or right lever as active, thus avoiding generation of a lever bias. Each session lasted 20 minutes and counts were recorded on each lever.
Following completion of the first phase of training (within about two weeks) the rats were trained to respond ter food according to the position of a visual cue (a lit LED). Half of the rats were trained to press the lever under the lit LED in order to receive a food reward. The other half of the rats were trained on the opposite contingency (i.e., to press the lever under the non-lit LED). Each training session began with illumination of the house-light. After three seconds both levers, together with the visual cue, were presented. The cue was presented for one second. […] The levers were then retracted and the house light was extinguished for a three-second time-out period, during which the pellet was consumed (if a correct response had been made). The house-light was then turned on again and the cycle repeated. Following 128 lever presses (which lasted approximately 30 minutes) the training session was terminated.
Each rat had one training session per day. Rats were required to make at least 115 responses on the correct lever (90% correct responding) on at least three consecutive days (which was generally achieved within two weeks). The contingency (visual cue, i.e. LED on or off, relative to active lever) remained constant during this period, though the position of the active lever varied from day to day according to a pseudo-random Gellerman schedule.
Subsequently, rats were trained until they again reached criterion on the opposite contingency (which was generally achieved within two weeks)). Rats achieved criterion at the same rate irrespective of whether they responded to one rule or the other. […]
Following a 7 day drug (PCP)-free period the rats were treated with test agents (antipsychotic drugs and GABAA-receptor antagonists). Sixty minutes later the rats were exposed for five-minutes (“initial phase”) to the same contingency (cue position relative to active lever) as was during the operant training session and their responses (pressing on correct and incorrect levers) were recorded. Following a two-minutes recess the animals were exposed for five-minutes to a reversed contingency (“reversal phase”) during which their responses (pressing on correct and incorrect levers) were recorded. […]

[2] = tested on: patients having acute exacerbation of schizophrenia; test: Clinical trial, Brief Assessment of Cognition in Schizophrenia (BACS); assay type: in vivo, human; details: for BACS mean change from baseline at Day 42, Mean (SD): 42 days; for BACS Difference in LS-mean vs. Risperidone (ANCOVA) / BACS Difference in LS-means vs. Placebo (ANCOVA): Day 42; for cognitive functions as compared to the placebo: schizophrenic patients, human clinical trial
Procedure: The trial was conducted at forty sites located in the USA, Europe and India. For the trial 363 patients were recruited and randomized equally. Drugs (BL-1020, 10 mg/day; BL-1020, 20-30 mg/day; risperidone, 2-8 mg/day and placebo) have been administered to designated patients (double blinded) daily over a period of 42 days.
Key secondary efficacy measures included the Clinical Global Impression of Severity (CGI-S), the Clinical Global Impression of Change (CGI-C) from baseline, and effect on cognition as measured by the Brief Assessment of Cognition in Schizophrenia (BACS). Risperidone at a dose of 2-8 mg was included as a positive control to validate the study results.
Assessments of cognitive functions of treated patients have been performed on day zero (baseline) and on day 42 (end of study), using the test battery designed for use in patients with schizophrenia [Richard Keefe (Ed.), Brief Assessment of Cognition in Schizophrenia (BACS) Version 3.0, Duke University Medical Center, 1999; and Keefe et al., Schizophrenia Research, 68: 283-297, 2004]. The battery consists of brief assessments of processing speed, reasoning and problem solving and verbal and working memory. A composite score is obtained by summing the z-scores of six measures (verbal memory, digit sequencing, token motor task, fluency, symbol coding and Tower of London).

**Q.** `NCCCC(=O)OCCN1CCN(CCCN2c3ccccc3Sc3ccc(Cl)cc32)CC1` [BL-1020, 4-amino-butyric acid 2-{4-[3-(2-chloro-phenothiazin-10-yl)-propyl]piperazin-1-yl}-ethyl ester] was tested. Which “effect on PCP-induced reversal learning deficit (percent correct response)” value (“effect … (percent correct response)” for short) ([1]; BL-1020 3 mg/kg per os, 60 min before task, p<0.01, 3 mg/kg) did it give?
**A.** The value was “significantly improved; also recorded: significant improvement”.

**Q.** What about the “BACS test mean score at Baseline, Mean (SD)” value (from here on “BACS test mean score … (SD)”) ([2]; BL-1020 10 mg/day group, day 0, n = 90) of the same molecule?
**A.** The value was 16.7 (15.5).

**Q.** What about the “BACS mean change from baseline at Day 42, Mean (SD)” value (“BACS mean change … (SD)” below) ([2]; BL-1020 10 mg/day) of the same molecule?
**A.** The value was 5.1 (7.1).

**Q.** What about the “BACS Difference in LS-mean vs. Risperidone (ANCOVA)” value ([2]; BL-1020 10 mg/day) of the same molecule?
**A.** Its value is 0.11.

**Q.** And the “BACS Difference in LS-means vs. Placebo (ANCOVA)” value ([2]; BL-1020 10 mg/day)?
**A.** The value was 0.63.

**Q.** What about the “BACS test mean score … (SD)” value ([2]; BL-1020 30 mg/day group, day 0, n = 89) of the same molecule?
**A.** Its value is 15.3 (15.5).

**Q.** What about the “BACS mean change … (SD)” value ([2]; BL-1020 30 mg/day) of the same molecule?
**A.** The value was 8.3 (8.5).

**Q.** And the “BACS Difference in LS-mean vs. Risperidone (ANCOVA)” value ([2]; BL-1020 30 mg/day)?
**A.** Its value is 3.40.

**Q.** What about the “BACS Difference in LS-means vs. Placebo (ANCOVA)” value ([2]; BL-1020 30 mg/day) of the same molecule?
**A.** Its value is 3.92.

**Q.** What about the BACS score increase ([2]; BL-1020 high dose 20-30 mg/day, after 42 days) of the same molecule?
**A.** Its BACS score increase is 8.3 points.

**Q.** And the “cognitive functions as compared to the placebo” value [2]?
**A.** Its value is “significantly improved”.

**Q.** How did the “percent correct responding animals in the reversal learning task” value ([1]; PCP 2 mg/kg intra-peritoneally twice daily for 7 days, p<0.01) turn out when `c1ccc(C2(N3CCCCC3)CCCCC2)cc1` [PCP, phencyclidine hydrochloride] was run?
**A.** The value was “significantly reduced”.

**Q.** With `Cc1nc2n(c(=O)c1CCN1CCC(c3noc4cc(F)ccc34)CC1)CCCC2` [Risperidone, risperidone, reference compound] as the molecule, how does the “BACS test mean score … (SD)” value ([2]; Risperidone 8 mg/day group, day 0, n = 91) read?
**A.** The value was 13.5 (12.3).

**Q.** And the “BACS mean change … (SD)” value ([2]; Risperidone 8 mg/day)?
**A.** Its value is 5.7 (6.2).

**Q.** What about the “BACS Difference in LS-means vs. Placebo (ANCOVA)” value ([2]; Risperidone 8 mg/day) of the same molecule?
**A.** The value was 0.52.

**Q.** And the “cognitive functions as compared to the placebo” value [2]?
**A.** The value was “failed to improve cognitive functions”.

**Q.** For `OCCN1CCN(CCCN2c3ccccc3Sc3ccc(Cl)cc32)CC1` [perphenazine], which “effect … (percent correct response)” value ([1]; perphenazine 2.49 mg/kg per os (equivalent to perphenazine moiety in 3 mg/kg BL-1020)) is on record?
**A.** Its value is “did not significantly improve; also recorded: failed to improve cognitive functions”.

**Q.** For picrotoxin, which “effect on BL-1020 improvement of PCP-induced reversal learning deficit” value ([1]; picrotoxin 0.5 mg/kg co-administered with BL-1020 3 mg/kg, p<0.001) is on record?
**A.** Its value is “negated the BL-1020 effect”.

**Q.** And the “effect … (percent correct response)” value ([1]; picrotoxin 0.25, 0.5 and 1 mg/kg intra-peritoneally)?
**A.** The value was “did not significantly improve”.

Source: patent US8975251B2, “Methods of improving cognitive functions” (Bar-Ilan University, priority 2009, dated 2015)
